The record followed here is US20100099613A1, “PEPTIDES FOR INDUCING A CTL AND/OR HTL RESPONSE TO HEPATITIS C VIRUS” (GENIMMUNE, priority 2004, published 2010).

Where a SMILES comes first, the peptide text is derived from it.

Assay [1] deals with HLA-B44 in surrogate mice (CBA). Briefly: Immunogenicity of CTL peptides, IFN-γ ELISPOT. To be noted: Table 23.
Assay [2] concerns the target HLA-B44. Kind of assay: HLA class I competition binding assay using soluble HLA (125I probe peptide). More on the design: species or system human. As to conditions: Table 23; read-out: nM IC50 B*4402.
In assay [3] the test system is Balb/c (H2^bxd) mice. Kind of assay: Activity of HTL epitopes, ELISPOT of CD4+ cells, pooled samples. Type of assay: in vivo, mouse. To be noted: Table 27, 2 experiments.
Method: (§1) The experiments to test the immunogenicity of HLA-DR peptides differs slightly from example 6 in that complete Freund's is used as the adjuvant. Peptides are tested in either DRB1*0401-Tg mice or surrogate mice such as Balb/c and CBA. In this particular example, HLA-restricted peptide responses are analyzed in pooled samples.
Assay [4] deals with DRB1*0401-Tg mice (DR4 Tg). The assay is described as above. Type of assay: in vivo, mouse. As to conditions: Table 26, 2 experiments.
Method: as §1

Consider AEQFKOKAL, for which the “Immunized SFC/10^6 ± St Error” value in assay [1] amounted to 7.9 ± 6.7 SFC/10^6. In addition, the IC50 (commonly the concentration at which inhibition is half-maximal) in assay [2] amounted to 67 nM.
With `CC[C@H](C)[C@H](NC(=O)CNC(=O)[C@@H](NC(=O)[C@H](C)N)C(C)C)C(=O)N[C@@H](Cc1ccccc1)C(=O)N[C@@H](CCCNC(=N)N)C(=O)N[C@@H](C)C(=O)N[C@@H](C)C(=O)N[C@H](C(=O)N[C@@H](CS)C(=O)N[C@H](C(=O)N[C@@H](CCCNC(=N)N)C(=O)NCC(=O)N[C@H](C(=O)N[C@@H](C)C(=O)O)C(C)C)[C@@H](C)O)C(C)C`, the “Immunized SFC/10^6 ± St Error” value in assay [3] was 1330.4 ± 111.9 SFC/10^6.
Consider `CC(C)C[C@H](NC(=O)[C@@H](NC(=O)[C@@H](NC(=O)[C@@H](N)CC(C)C)C(C)C)C(C)C)C(=O)N[C@@H](C)C(=O)N[C@H](C(=O)N[C@@H](C)C(=O)N[C@H](C(=O)N1CCC[C@H]1C(=O)N1CCC[C@H]1C(=O)NCC(=O)N[C@@H](CO)C(=O)N[C@H](C(=O)N[C@H](C(=O)N[C@H](C(=O)O)C(C)C)[C@@H](C)O)C(C)C)[C@@H](C)O)[C@@H](C)O` (H-LVVLATATPPGSVTV-OH; N-terminus and C-terminus assumed), for which, in assay [4], the “Immunized SFC/10^6 ± St Error” value is given as 111.7 ± 42.3 SFC/10^6.
